Reference: article PMC7029851, “Antibacterial activity of novel dual bacterial DNA type II topoisomerase inhibitors” (PLoS ONE, 2020)
Like-named read-outs stand apart in the source and are kept apart here.

How the values were obtained:
E. coli DNA gyrase = molecular target: T1, E. coli DNA gyrase (Escherichia coli, UniProt P0AES4); experiment: E. coli DNA gyrase supercoiling gel assay; assay type: biochemical
T1 construct: purchased Inspiralis (Norwich, UK)
Procedure: (§1) S. aureus and E. coli DNA gyrase supercoiling and topo IV decatenation assay kits, as well as human topoisomerase II decatenation assay kits, were provided by Inspiralis (Norwich, UK). Assays were performed according to the manufacturer’s instructions. The compounds were serially diluted (1:3 dilutions starting from a 300 μM final concentration) and assayed in a reaction mixture to obtain concentration-response curves in two different replicate experiments. The final concentration of DMSO in the assays was 1% (v/v). The reactions were terminated by the addition of 30 μl chloroform/isoamyl alcohol (26:1) and 30 μl Stop Dye (40% sucrose, 100 mM Tris HCl pH 7.5, 1 mM EDTA, 0.5 μg/ml bromophenol blue), after which the samples were loaded onto a 1.0% TAE ([…]) gel that was then run at 80 V for 2 hours. DNA bands were visualized by ethidium bromide staining the gel for 10 minutes, which was then destained for 10 minutes in water and analysed using gel documentation equipment (Syngene, Cambridge, UK). The DNA in each band was quantitated using Syngene Gene Tools software. Raw gel data (fluorescent band volumes) were converted by the software to percentages of the control (the fully supercoiled or decatenated DNA band). […] The global curve fit non-linear regression tool was used to calculate the IC50 values. The results are expressed as the average values obtained after calculating the IC50 from each replicate run.

E. coli Topoisomerase IV = molecular target: T2, E. coli Topoisomerase IV (Escherichia coli, UniProt P0AFI2); experiment: E. coli topoisomerase IV decatenation gel assay; assay type: biochemical
T2 construct: purchased Inspiralis (Norwich, UK)
Procedure: as §1

S. aureus DNA gyrase = molecular target: T3, S. aureus DNA gyrase (Staphylococcus aureus, UniProt P20831); experiment: S. aureus DNA gyrase supercoiling gel assay; assay type: biochemical
T3 construct: purchased Inspiralis (Norwich, UK)
Procedure: as §1

[1] = molecular target: T4, S. aureus Topoisomerase IV (Staphylococcus aureus, UniProt P0C1U9); experiment: S. aureus topoisomerase IV decatenation gel assay; assay type: biochemical
T4 construct: purchased Inspiralis (Norwich, UK)
Procedure: as §1

Human Topoisomerase II = molecular target: T5, Human Topoisomerase II (Homo sapiens, UniProt P11388); experiment: Human topoisomerase II decatenation gel assay; assay type: biochemical
T5 construct: purchased Inspiralis (Norwich, UK)
Procedure: as §1

S. aureus ATCC 29213 = experiment: MIC, broth microdilution; assay type: cell-based, Staphylococcus aureus; conditions: for MIC: Staphylococcus aureus
Procedure: (§2) MICs were determined by the broth microdilution method (the agar dilution method was used only for N. gonorrhoeae) according to CLSI guidelines.

E. coli ATCC 25922 = experiment: MIC, broth microdilution; assay type: cell-based; conditions: Escherichia coli, ATCC25922; E. coli ATCC 25922, ciprofloxacin-susceptible
Procedure: as §2

E. faecalis ATCC 29212 = experiment: MIC, broth microdilution; assay type: cell-based; conditions: Enterococcus faecalis, ATCC29212; E. faecalis ATCC 29212, ciprofloxacin-susceptible
Procedure: as §2

H. influenzae ATCC 49766 = experiment: MIC, broth microdilution; assay type: cell-based; conditions: Haemophilus influenzae, ATCC49766; H. influenzae ATCC 49766, ciprofloxacin-susceptible
Procedure: as §2

[2] = system: K. pneumoniae ATCC 700603; experiment: MIC, broth microdilution; assay type: cell-based; conditions: Klebsiella pneumoniae, ATCC700603; K. pneumoniae ATCC 700603, ciprofloxacin-susceptible
Procedure: as §2

P. aeruginosa ATCC 27853 = experiment: MIC, broth microdilution; assay type: cell-based; conditions: Pseudomonas aeruginosa, ATCC27853; P. aeruginosa ATCC 27853, ciprofloxacin-susceptible
Procedure: as §2

S. aureus BAA-1720 = experiment: MIC, broth microdilution; assay type: cell-based; conditions: Staphylococcus aureus, BAA1720; S. aureus BAA-1720, ciprofloxacin-resistant
Procedure: as §2

S. pneumoniae ATCC 49619 = experiment: MIC, broth microdilution; assay type: cell-based; conditions: Streptococcus pneumoniae, ATCC49619; S. pneumoniae ATCC 49619, ciprofloxacin-susceptible
Procedure: as §2

[3] = system: N. gonorrhoeae ATCC 19424; experiment: MIC, agar dilution; assay type: cell-based; conditions: Neisseria gonorrhoeae, ATCC19424; N. gonorrhoeae ATCC 19424, ciprofloxacin-susceptible
Procedure: as §2

[4] = system: N. gonorrhoeae ATCC 49226; experiment: MIC, agar dilution; assay type: cell-based; conditions: Neisseria gonorrhoeae, ATCC49226; N. gonorrhoeae ATCC 49226, ciprofloxacin-susceptible
Procedure: as §2

N. gonorrhoeae WHO K = experiment: MIC, agar dilution; assay type: cell-based; conditions: Neisseria gonorrhoeae, ciprofloxacin-resistant
Procedure: as §2

N. gonorrhoeae WHO L = experiment: MIC, agar dilution; assay type: cell-based; conditions: Neisseria gonorrhoeae, ciprofloxacin-resistant
Procedure: as §2

N. gonorrhoeae WHO N = experiment: MIC, agar dilution; assay type: cell-based; conditions: Neisseria gonorrhoeae, ciprofloxacin-resistant
Procedure: as §2

E. coli TolC- mutant = experiment: microbe, parasite or virus in culture; assay type: cell-based; conditions: Escherichia coli
Procedure: (§3) The bacterial reference strains used in this study were purchased from ATCC (American Type Culture Collection) via LGC Standards (Middlesex, UK). […] Clinical MDR isolates were provided by Aptuit, the IHMA Europa Sàrl repository (Epalinges, Switzerland) and the Statens Serum Institute (Copenhagen, Denmark).
as §2

[5] = system: K. pneumoniae AcrAB- mutant; experiment: microbe, parasite or virus in culture; assay type: cell-based; conditions: Klebsiella pneumoniae
Procedure: as §3, §2

[6] = system: E. faecalis clinical isolates (n = 12) vanA (6)/vanB (6); experiment: MIC, multidrug-resistant clinical isolates; assay type: cell-based; conditions: Enterococcus faecalis
Procedure: as §3, §2
(§4) The results obtained using clinical isolates are reported as MIC50 and MIC90 values.

[7] = system: E. faecium clinical isolates (n = 12) vanA (6)/vanB (6); experiment: MIC, multidrug-resistant clinical isolates; assay type: cell-based; conditions: Enterococcus faecium
Procedure: as §3, §2, §4

[8] = system: N. gonorrhoeae clinical isolates (n = 38); experiment: microbe, parasite or virus in culture; assay type: cell-based, Neisseria gonorrhoeae
Procedure: as §3, §2, §4

T2 sequence (P20083 whole entry): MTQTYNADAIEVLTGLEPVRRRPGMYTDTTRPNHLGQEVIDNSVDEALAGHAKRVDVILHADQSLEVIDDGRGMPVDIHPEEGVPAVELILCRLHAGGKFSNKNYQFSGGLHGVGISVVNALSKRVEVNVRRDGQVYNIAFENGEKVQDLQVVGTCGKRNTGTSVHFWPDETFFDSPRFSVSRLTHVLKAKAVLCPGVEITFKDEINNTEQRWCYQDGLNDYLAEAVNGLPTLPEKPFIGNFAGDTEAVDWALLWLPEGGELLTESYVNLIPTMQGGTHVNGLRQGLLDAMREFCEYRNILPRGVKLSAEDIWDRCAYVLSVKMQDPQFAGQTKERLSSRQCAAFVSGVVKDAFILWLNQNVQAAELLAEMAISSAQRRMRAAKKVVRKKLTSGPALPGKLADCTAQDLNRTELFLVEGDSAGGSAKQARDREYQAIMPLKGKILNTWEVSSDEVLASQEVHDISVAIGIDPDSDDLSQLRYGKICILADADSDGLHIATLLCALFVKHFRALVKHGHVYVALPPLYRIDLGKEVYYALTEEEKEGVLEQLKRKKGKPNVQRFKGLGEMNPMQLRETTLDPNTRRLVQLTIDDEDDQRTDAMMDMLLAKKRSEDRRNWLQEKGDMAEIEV
T2 sequence (P0AFI2 whole entry): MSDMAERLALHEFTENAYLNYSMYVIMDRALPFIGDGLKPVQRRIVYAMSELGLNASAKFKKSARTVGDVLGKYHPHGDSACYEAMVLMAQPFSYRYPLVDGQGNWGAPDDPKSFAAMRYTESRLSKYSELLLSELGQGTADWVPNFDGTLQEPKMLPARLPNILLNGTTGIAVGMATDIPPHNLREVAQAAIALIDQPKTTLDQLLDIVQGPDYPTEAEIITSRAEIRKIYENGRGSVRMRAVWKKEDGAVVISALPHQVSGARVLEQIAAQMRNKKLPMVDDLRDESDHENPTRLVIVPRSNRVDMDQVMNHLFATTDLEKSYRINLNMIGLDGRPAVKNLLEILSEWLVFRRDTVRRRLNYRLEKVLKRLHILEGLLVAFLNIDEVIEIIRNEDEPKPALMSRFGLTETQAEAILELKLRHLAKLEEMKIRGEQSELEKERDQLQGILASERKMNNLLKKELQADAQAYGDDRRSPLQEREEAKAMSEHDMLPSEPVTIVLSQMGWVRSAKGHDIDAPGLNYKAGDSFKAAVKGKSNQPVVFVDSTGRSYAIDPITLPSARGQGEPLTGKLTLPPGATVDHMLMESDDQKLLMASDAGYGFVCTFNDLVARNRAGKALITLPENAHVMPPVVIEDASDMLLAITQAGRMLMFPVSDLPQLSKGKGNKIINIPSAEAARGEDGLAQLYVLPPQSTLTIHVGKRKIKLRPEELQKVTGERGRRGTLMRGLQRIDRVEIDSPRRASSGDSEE
T3 sequence (P20831 whole entry): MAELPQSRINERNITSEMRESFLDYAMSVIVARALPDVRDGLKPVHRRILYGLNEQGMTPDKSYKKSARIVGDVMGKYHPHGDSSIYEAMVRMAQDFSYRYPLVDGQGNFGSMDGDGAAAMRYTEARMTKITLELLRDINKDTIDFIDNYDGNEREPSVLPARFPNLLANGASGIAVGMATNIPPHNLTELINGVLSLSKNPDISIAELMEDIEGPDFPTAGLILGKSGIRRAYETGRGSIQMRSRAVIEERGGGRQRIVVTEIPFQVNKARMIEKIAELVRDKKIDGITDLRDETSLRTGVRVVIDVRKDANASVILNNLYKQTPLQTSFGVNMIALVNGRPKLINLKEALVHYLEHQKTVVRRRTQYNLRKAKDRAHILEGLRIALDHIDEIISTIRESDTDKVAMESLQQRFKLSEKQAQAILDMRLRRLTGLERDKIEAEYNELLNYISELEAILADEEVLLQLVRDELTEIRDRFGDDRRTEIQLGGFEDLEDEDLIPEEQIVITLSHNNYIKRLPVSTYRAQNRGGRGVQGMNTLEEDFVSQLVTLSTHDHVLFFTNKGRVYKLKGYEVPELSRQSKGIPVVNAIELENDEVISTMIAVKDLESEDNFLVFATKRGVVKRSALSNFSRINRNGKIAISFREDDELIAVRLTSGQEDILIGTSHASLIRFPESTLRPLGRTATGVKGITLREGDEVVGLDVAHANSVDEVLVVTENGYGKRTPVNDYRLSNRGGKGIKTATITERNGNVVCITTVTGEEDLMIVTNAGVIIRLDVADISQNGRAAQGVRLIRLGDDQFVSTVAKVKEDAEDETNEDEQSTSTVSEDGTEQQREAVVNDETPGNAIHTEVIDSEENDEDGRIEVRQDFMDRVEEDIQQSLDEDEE
T3 sequence (P0A0K8 whole entry partner): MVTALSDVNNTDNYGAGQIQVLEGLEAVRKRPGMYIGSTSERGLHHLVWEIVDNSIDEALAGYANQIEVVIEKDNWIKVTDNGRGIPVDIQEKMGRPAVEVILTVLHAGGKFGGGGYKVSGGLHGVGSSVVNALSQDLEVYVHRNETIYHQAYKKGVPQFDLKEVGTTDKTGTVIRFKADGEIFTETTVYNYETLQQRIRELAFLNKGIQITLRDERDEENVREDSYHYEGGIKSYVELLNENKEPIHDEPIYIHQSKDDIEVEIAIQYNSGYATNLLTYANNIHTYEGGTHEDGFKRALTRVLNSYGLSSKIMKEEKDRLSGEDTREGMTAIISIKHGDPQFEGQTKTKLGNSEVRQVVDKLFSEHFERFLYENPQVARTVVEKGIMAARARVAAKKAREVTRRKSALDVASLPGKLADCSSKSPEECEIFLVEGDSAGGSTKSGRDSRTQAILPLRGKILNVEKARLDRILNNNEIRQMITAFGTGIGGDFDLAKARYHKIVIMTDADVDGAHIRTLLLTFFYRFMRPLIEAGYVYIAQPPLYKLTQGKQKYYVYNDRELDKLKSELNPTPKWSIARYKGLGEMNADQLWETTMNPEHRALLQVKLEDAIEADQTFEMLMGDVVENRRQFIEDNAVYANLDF
T5 sequence (P11388 whole entry): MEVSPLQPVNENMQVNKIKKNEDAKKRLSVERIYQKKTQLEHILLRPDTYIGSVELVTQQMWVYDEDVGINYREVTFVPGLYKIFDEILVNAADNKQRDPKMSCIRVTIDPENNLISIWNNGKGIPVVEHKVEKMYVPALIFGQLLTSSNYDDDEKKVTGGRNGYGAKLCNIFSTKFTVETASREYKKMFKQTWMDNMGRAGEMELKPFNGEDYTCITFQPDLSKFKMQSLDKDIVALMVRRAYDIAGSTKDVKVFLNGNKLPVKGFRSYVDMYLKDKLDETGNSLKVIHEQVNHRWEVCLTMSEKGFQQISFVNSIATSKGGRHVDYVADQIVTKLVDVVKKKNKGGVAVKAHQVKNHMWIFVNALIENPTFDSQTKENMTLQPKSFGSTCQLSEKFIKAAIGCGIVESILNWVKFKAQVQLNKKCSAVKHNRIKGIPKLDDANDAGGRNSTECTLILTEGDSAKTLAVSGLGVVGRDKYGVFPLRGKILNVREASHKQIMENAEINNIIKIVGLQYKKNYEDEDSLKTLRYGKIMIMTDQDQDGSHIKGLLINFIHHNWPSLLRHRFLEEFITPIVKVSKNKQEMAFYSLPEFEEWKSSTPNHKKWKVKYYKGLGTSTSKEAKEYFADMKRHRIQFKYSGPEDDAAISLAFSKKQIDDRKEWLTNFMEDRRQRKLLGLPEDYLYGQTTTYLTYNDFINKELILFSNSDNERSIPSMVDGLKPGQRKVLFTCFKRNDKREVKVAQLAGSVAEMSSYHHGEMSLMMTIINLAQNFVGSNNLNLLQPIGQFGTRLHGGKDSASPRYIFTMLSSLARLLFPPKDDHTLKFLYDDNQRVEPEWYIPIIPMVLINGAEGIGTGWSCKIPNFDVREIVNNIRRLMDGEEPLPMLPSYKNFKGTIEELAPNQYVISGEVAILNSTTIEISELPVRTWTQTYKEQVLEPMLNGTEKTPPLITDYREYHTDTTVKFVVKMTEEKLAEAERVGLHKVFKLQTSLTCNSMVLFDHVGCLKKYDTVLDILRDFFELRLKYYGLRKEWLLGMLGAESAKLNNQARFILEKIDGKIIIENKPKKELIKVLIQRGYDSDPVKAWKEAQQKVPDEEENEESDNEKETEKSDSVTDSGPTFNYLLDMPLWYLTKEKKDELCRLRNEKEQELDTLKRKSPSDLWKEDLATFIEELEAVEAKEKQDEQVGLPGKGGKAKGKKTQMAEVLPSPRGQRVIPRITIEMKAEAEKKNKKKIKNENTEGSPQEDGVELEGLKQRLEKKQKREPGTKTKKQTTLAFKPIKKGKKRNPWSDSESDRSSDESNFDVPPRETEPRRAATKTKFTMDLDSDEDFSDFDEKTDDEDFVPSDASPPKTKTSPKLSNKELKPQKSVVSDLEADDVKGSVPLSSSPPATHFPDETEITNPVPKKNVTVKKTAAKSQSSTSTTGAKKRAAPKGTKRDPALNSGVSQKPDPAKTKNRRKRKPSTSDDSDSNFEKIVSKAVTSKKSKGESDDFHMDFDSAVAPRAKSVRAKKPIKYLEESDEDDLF

SMILES: Cl.N#Cc1ccc2ccc(=O)n([C@H]3CC[C@H](NCc4cc5c(=O)oc6ccc(F)cc6c5[nH]4)CC3)c2c1 [Compound 2, 1-(trans-4-{[(8-fluoro-4-oxo-1,4-dihydro[1]benzopyrano[4,3-b]pyrrol-2-yl)methyl]amino}cyclohexyl)-2-oxo-1,2-dihydroquinoline-7-carbonitrile hydrochloride]
- IC50 (E. coli DNA gyrase; IC50 E. coli Gyrase Supercoiling (average), average of two replicate experiments): 50 nM
- IC50 (E. coli DNA gyrase; IC50 E. coli gyrase Supercoiling, Assay 1, replicate Assay 1): 40 nM
- IC50 (E. coli DNA gyrase; IC50 E. coli gyrase Supercoiling, Assay 2, replicate Assay 2): 50 nM
- IC50 (E. coli Topoisomerase IV; IC50 E. coli Topoisomerase IV decatenation (average), average of two replicate experiments): 130 nM
- IC50 (E. coli Topoisomerase IV; IC50 E. coli Topoisomerase IV decatenation, Assay 1, replicate Assay 1): 100 nM
- IC50 (E. coli Topoisomerase IV; IC50 E. coli Topoisomerase IV decatenation, Assay 2, replicate Assay 2): 160 nM
- IC50 (S. aureus DNA gyrase; average of two replicate experiments, read-out: IC50 S. aureus Gyrase Supercoiling (average)): < 100 nM
- IC50 (S. aureus DNA gyrase; replicate Assay 1, read-out: IC50 S.aureus gyrase Supercoiling, Assay 1): < 100 nM
- IC50 (S. aureus DNA gyrase; replicate Assay 2, read-out: IC50 S.aureus gyrase Supercoiling, Assay 2): < 100 nM
- IC50 ([1]; average of two replicate experiments, read-out: IC50 S. aureus Topoisomerase IV decatenation (average)): < 100 nM
- IC50 ([1]; replicate Assay 1, read-out: IC50 S. aureus Topoisomerase IV decatenation, Assay 1): < 100 nM
- IC50 ([1]; replicate Assay 2, read-out: IC50 S. aureus Topoisomerase IV decatenation, Assay 2): < 100 nM
- IC50 (Human Topoisomerase II; average of two replicate experiments, read-out: IC50 Human Topoisomerase II decatenation (average)): 6000 nM
- IC50 (Human Topoisomerase II; replicate Assay 1, read-out: IC50 Human Topoisomerase II (TopoII) decatenation, Assay 1): 6000 nM
- IC50 (Human Topoisomerase II; replicate Assay 2, read-out: IC50 Human Topoisomerase II (TopoII) decatenation, Assay 2): 7000 nM
- MIC fold lower than that of ciprofloxacin (S. aureus ATCC 29213; S. aureus ATCC 29213): approximately 10 fold
- MIC (S. aureus ATCC 29213; ATCC29213, S. aureus ATCC 29213, ciprofloxacin-susceptible): 0.03 µg/mL
- MIC (S. aureus ATCC 29213; ATCC29213, S. aureus ATCC29213, ref strain, S4 File): ≤ 0.06 µg/mL
- MIC (E. coli ATCC 25922): 0.5 µg/mL
- MIC (E. faecalis ATCC 29212): 0.25 µg/mL
- MIC (H. influenzae ATCC 49766): 0.5 µg/mL
- MIC [2]: > 8 µg/mL
- MIC (P. aeruginosa ATCC 27853): 2 µg/mL
- MIC (S. aureus BAA-1720): 0.016 µg/mL
- MIC (S. pneumoniae ATCC 49619): ≤ 0.06 µg/mL
- MIC [3]: ≤ 0.06 µg/mL
- MIC [4]: 0.06 µg/mL
- MIC (N. gonorrhoeae WHO K): 0.12 µg/mL
- MIC (N. gonorrhoeae WHO L): 0.06 µg/mL
- MIC (N. gonorrhoeae WHO N): 0.03 µg/mL
- MIC (E. coli TolC- mutant): ≤ 0.016 µg/mL
- MIC [5]: ≤ 0.016 µg/mL
- MIC50 [6]: 0.12 µg/mL
- MIC90 [6]: 0.12 µg/mL
- MIC ([6]; read-out: MIC range): 0.06 to 0.12 µg/mL
- MIC50 [7]: 0.12 µg/mL
- MIC90 [7]: 0.25 µg/mL
- MIC ([7]; read-out: MIC range): 0.06 to 1 µg/mL
- MIC range [8]: 0.004 to 0.12 µg/mL
- MIC50 ([8]; Neisseria gonorrhoeae): 0.06 µg/mL
- MIC90 ([8]; Neisseria gonorrhoeae): 0.12 µg/mL
